According to PMC10939466, “A transferrin receptor targeting dual-modal MR/NIR fluorescent imaging probe for glioblastoma diagnosis” (Regenerative Biomaterials, 2024):
Square brackets hold non-standard residues; d marks the D form. Peptide text beside a SMILES is read from it.

Legend:
[1] = tested on: BBB model in vitro (bEnd.3 cells co-cultured with U87-MG cells); experiment: Sodium fluorescein permeability of the in vitro BBB model; assay type: in vitro ADME; conditions: transwell 3 µm pore, 0.33 cm^2, bEnd.3 upper / U87-MG lower chamber; NaFl 10 µg/mL; 30, 60, 90 min; 37°C; fluorescence 485/535 nm
Experimental: A primary BBB model using bEnd.3 cells in vitro was established to evaluate the penetration ability of ^DTHR-Cy7-PEG-DSPE-SPIONs. The inner side of a polycarbonate transwell (Millipore, USA) with a mean pore size of 3 µm and a surface area of 0.33 cm^2 was coated with collagen. After coating, the transwell was left to air dry for 30 min. Then, bEnd.3 cells (5 × 10^4 cells per well) were seeded into the upper chamber of a 24-well transwell plate. After 48 h, 1 × 10^5 U87-MG cells were seeded in the lower chamber of each well. Both cells were co-cultured for 1 week.
The endothelial permeability coefficient of sodium fluorescein (NaFl) was used to evaluate the function of BBB model in vitro, as previously described. In brief, 200 µL NaFl solution (10 µg/mL) and 900 µL PBS were added to the upper and lower chambers of the BBB models, respectively. And then cultured in a 5% CO2 atmosphere at 37°C. Following incubation periods of 30, 60 and 90 min, 100 µL samples from the lower chambers were transferred to a new 96-well plate. […] Finally, the relative fluorescence intensity of the samples was measured using a multi-detector monochromator microplate reader (485/535 nm), with NaFl concentration deduced from a standard curve. The apparent permeability coefficient (Papp) was calculated using the formula: Papp=dQ/dt×1/(A×C0). […]

[2] = Cellular uptake of the peptides; assay type: cell-based

Row | SMILES | Papp of NaFl, BBB model [1] | cellular uptake compared to THR [2]
1 | O=C([O-])c1ccccc1-c1c2ccc(=O)cc-2oc2cc([O-])ccc12.[Na+].[Na+] [NaFl, sodium fluorescein] | 11.24 ± 0.73 ×10^−6 cm/s | –
2 | CSCC[C@@H](NC(=O)[C@@H](Cc1c[nH]c2ccccc12)NC(=O)[C@@H](CO)NC(=O)[C@H]1CCCN1C(=O)[C@H](NC(=O)[C@@H](Cc1c[nH]c2ccccc12)NC(=O)[C@H]1CCCN1C(C)=O)C(C)C)C(=O)N1CCC[C@@H]1C(=O)N1CCC[C@@H]1C(=O)N[C@H](CCCNC(=N)N)C(=O)N[C@H](Cc1c[nH]cn1)C(=O)N[C@@H](C(=O)O)[C@H](C)O [^DTHR, Ac-pwvpswmpprht-COOH] (Ac-[dP][dW][dV][dP][dS][dW][dM][dP][dP][dR][dH][dT]-OH) | – | lower cellular uptake
